Laboratory results taken from patent US20230123334A1, “AMINO LIPID COMPOUND, PREPARATION METHOD THEREFOR, AND APPLICATION THEREOF” (SHENZHEN SHENXIN BIOTECHNOLOGY CO., LTD., priority 2020, published 2023).

These compounds were tested on HEK293 cells (assay: Preliminary screening as mRNA vectors, EGFP mRNA transfection of HEK293 cells). Details: EGFP mRNA 50 ng per well, 96-well plates; percentage of GFP fluorescent cells relative to total number of cells (Hoechst).
Format: cell-based
In short: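 HEK293 cells in DMEM plus 10% FBS transfected in 96-well format with 50 ng EGFP mRNA per well; Lipofectamine2000 served as positive control. Read-out is the percentage of GFP-fluorescent cells among total cells, counted by Hoechst nuclear stain.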

Row | Structure (SMILES) | Absolute mRNA transfection efficiency in HEK293 cells
1 | CCCCCCCCCCCCCCCCCCSc1nc(NCC2CCN(C)CC2)nc(SCCCCCC)n1 [Compound D10S6S18] | 72.8%
2 | CCCCCCCSc1nc(NCCCCCC)nc(NCC2CCN(C)CC2)n1 [Compound D10S7N6] | 2.0%
3 | CCCCCCCNc1nc(NCC2CCN(C)CC2)nc(SCCCCCCC)n1 [Compound D10S7N7] | 0.9%
4 | CCCCCCCCNc1nc(NCC2CCN(C)CC2)nc(SCCCCCCC)n1 [Compound D10S7N8] | 1.3%
5 | CCCCCCCCCNc1nc(NCC2CCN(C)CC2)nc(SCCCCCCC)n1 [Compound D10S7N9] | 4.6%
6 | CCCCCCCCCCCNc1nc(NCC2CCN(C)CC2)nc(SCCCCCCC)n1 [Compound D10S7N11] | 25.3%
7 | CCCCCCCCCCCCNc1nc(NCC2CCN(C)CC2)nc(SCCCCCCC)n1 [Compound D10S7N12] | 63.7%
8 | CCCCCCCCCCCCCNc1nc(NCC2CCN(C)CC2)nc(SCCCCCCC)n1 [Compound D10S7N13] | 70.8%
9 | CCCCCCCCCCCCCCCNc1nc(NCC2CCN(C)CC2)nc(SCCCCCCC)n1 [Compound D10S7N15] | 67.3%
10 | CCCCCCCCCCCCCCCCNc1nc(NCC2CCN(C)CC2)nc(SCCCCCCC)n1 [Compound D10S7N16] | 44.3%
11 | CCCCCCCCCCCCCCCCCCNc1nc(NCC2CCN(C)CC2)nc(SCCCCCCC)n1 [Compound D10S7N18] | 45.8%
12 | CCCCCCCSc1nc(NCC2CCN(C)CC2)nc(SCCCCCCC)n1 [Compound D10S7S7] | 19.3%
13 | CCCCCCCCSc1nc(NCC2CCN(C)CC2)nc(SCCCCCCC)n1 [Compound D10S7S8] | 32.9%
14 | CCCCCCCCCSc1nc(NCC2CCN(C)CC2)nc(SCCCCCCC)n1 [Compound D10S7S9] | 33.5%
15 | CCCCCCCCCCSc1nc(NCC2CCN(C)CC2)nc(SCCCCCCC)n1 [Compound D10S7S10] | 55.8%
16 | CCCCCCCCCCCSc1nc(NCC2CCN(C)CC2)nc(SCCCCCCC)n1 [Compound D10S7S11] | 60.8%
17 | CCCCCCCCCCCCSc1nc(NCC2CCN(C)CC2)nc(SCCCCCCC)n1 [Compound D10S7S12] | 80.4%
18 | CCCCCCCCCCCCCCSc1nc(NCC2CCN(C)CC2)nc(SCCCCCCC)n1 [Compound D10S7S14] | 88.7%
19 | CCCCCCCCCCCCCCCSc1nc(NCC2CCN(C)CC2)nc(SCCCCCCC)n1 [Compound D10S7S15] | 90.4%
20 | CCCCCCCCCCCCCCCCSc1nc(NCC2CCN(C)CC2)nc(SCCCCCCC)n1 [Compound D10S7S16] | 73.7%
21 | CCCCCCCCCCCCCCCCCCSc1nc(NCC2CCN(C)CC2)nc(SCCCCCCC)n1 [Compound D10S7S18] | 90.5%
22 | CCCCCCCCSc1nc(NCCCCCC)nc(NCC2CCN(C)CC2)n1 [Compound D10S8N6] | 0.4%
23 | CCCCCCCCSc1nc(NCCCCCCC)nc(NCC2CCN(C)CC2)n1 [Compound D10S8N7] | 0.3%

Row | Structure (SMILES) | Absolute mRNA transfection efficiency in HEK293 cells
24 | CCCCCCCCNc1nc(NCC2CCN(C)CC2)nc(SCCCCCCCC)n1 [Compound D10S8N8] | 1.2%
25 | CCCCCCCCCNc1nc(NCC2CCN(C)CC2)nc(SCCCCCCCC)n1 [Compound D10S8N9] | 30.2%
26 | CCCCCCCCCCCNc1nc(NCC2CCN(C)CC2)nc(SCCCCCCCC)n1 [Compound D10S8N11] | 81.5%
27 | CCCCCCCCCCCCNc1nc(NCC2CCN(C)CC2)nc(SCCCCCCCC)n1 [Compound D10S8N12] | 73.1%
28 | CCCCCCCCCCCCCNc1nc(NCC2CCN(C)CC2)nc(SCCCCCCCC)n1 [Compound D10S8N13] | 75.0%
29 | CCCCCCCCCCCCCCCNc1nc(NCC2CCN(C)CC2)nc(SCCCCCCCC)n1 [Compound D10S8N15] | 53.3%
30 | CCCCCCCCCCCCCCCCNc1nc(NCC2CCN(C)CC2)nc(SCCCCCCCC)n1 [Compound D10S8N16] | 36.4%
31 | CCCCCCCCCCCCCCCCCCNc1nc(NCC2CCN(C)CC2)nc(SCCCCCCCC)n1 [Compound D10S8N18] | 20.1%
32 | CCCCCCCCSc1nc(NCC2CCN(C)CC2)nc(SCCCCCCCC)n1 [Compound D10S8S8] | 50.8%
33 | CCCCCCCCCSc1nc(NCC2CCN(C)CC2)nc(SCCCCCCCC)n1 [Compound D10S8S9] | 37.6%
34 | CCCCCCCCCCSc1nc(NCC2CCN(C)CC2)nc(SCCCCCCCC)n1 [Compound D10S8S10] | 74.2%
35 | CCCCCCCCCCCSc1nc(NCC2CCN(C)CC2)nc(SCCCCCCCC)n1 [Compound D10S8S11] | 67.0%
36 | CCCCCCCCCCCCSc1nc(NCC2CCN(C)CC2)nc(SCCCCCCCC)n1 [Compound D10S8S12] | 67.9%
37 | CCCCCCCCCSc1nc(NCCCCCC)nc(NCC2CCN(C)CC2)n1 [Compound D10S9N6] | 0.6%
38 | CCCCCCCCCSc1nc(NCCCCCCC)nc(NCC2CCN(C)CC2)n1 [Compound D10S9N7] | 0.9%
39 | CCCCCCCCCSc1nc(NCCCCCCCC)nc(NCC2CCN(C)CC2)n1 [Compound D10S9N8] | 16.3%
40 | CCCCCCCCCNc1nc(NCC2CCN(C)CC2)nc(SCCCCCCCCC)n1 [Compound D10S9N9] | 70.0%
41 | CCCCCCCCCCCNc1nc(NCC2CCN(C)CC2)nc(SCCCCCCCCC)n1 [Compound D10S9N11] | 66.0%
42 | CCCCCCCCCCCCNc1nc(NCC2CCN(C)CC2)nc(SCCCCCCCCC)n1 [Compound D10S9N12] | 57.0%
43 | CCCCCCCCCCCCCNc1nc(NCC2CCN(C)CC2)nc(SCCCCCCCCC)n1 [Compound D10S9N13] | 75.8%
44 | CCCCCCCCCCCCCCCNc1nc(NCC2CCN(C)CC2)nc(SCCCCCCCCC)n1 [Compound D10S9N15] | 17.5%
45 | CCCCCCCCCCCCCCCCNc1nc(NCC2CCN(C)CC2)nc(SCCCCCCCCC)n1 [Compound D10S9N16] | 30.2%
46 | CCCCCCCCCCCCCCCCCCNc1nc(NCC2CCN(C)CC2)nc(SCCCCCCCCC)n1 [Compound D10S9N18] | 22.4%

Row | Structure (SMILES) | Absolute mRNA transfection efficiency in HEK293 cells
47 | CCCCCCCCCCSc1nc(NCCCCCC)nc(NCC2CCN(C)CC2)n1 [Compound D10S10N6] | 0.5%
48 | CCCCCCCCCCSc1nc(NCCCCCCC)nc(NCC2CCN(C)CC2)n1 [Compound D10S10N7] | 1.0%
49 | CCCCCCCCCCSc1nc(NCCCCCCCC)nc(NCC2CCN(C)CC2)n1 [Compound D10S10N8] | 1.7%
50 | CCCCCCCCCCSc1nc(NCCCCCCCCC)nc(NCC2CCN(C)CC2)n1 [Compound D10S10N9] | 4.2%
51 | CCCCCCCCCCCNc1nc(NCC2CCN(C)CC2)nc(SCCCCCCCCCC)n1 [Compound D10S10N11] | 8.8%
52 | CCCCCCCCCCCCNc1nc(NCC2CCN(C)CC2)nc(SCCCCCCCCCC)n1 [Compound D10S10N12] | 15.5%
53 | CCCCCCCCCCCCCNc1nc(NCC2CCN(C)CC2)nc(SCCCCCCCCCC)n1 [Compound D10S10N13] | 8.5%
54 | CCCCCCCCCCCCCCCNc1nc(NCC2CCN(C)CC2)nc(SCCCCCCCCCC)n1 [Compound D10S10N15] | 13.2%
55 | CCCCCCCCCCCCCCCCNc1nc(NCC2CCN(C)CC2)nc(SCCCCCCCCCC)n1 [Compound D10S10N16] | 15.4%
56 | CCCCCCCCCCCCCCCCCCNc1nc(NCC2CCN(C)CC2)nc(SCCCCCCCCCC)n1 [Compound D10S10N18] | 6.0%
57 | CCCCCCCCCCCSc1nc(NCCCCCC)nc(NCC2CCN(C)CC2)n1 [Compound D10S11N6] | 6.8%
58 | CCCCCCCCCCCSc1nc(NCCCCCCC)nc(NCC2CCN(C)CC2)n1 [Compound D10S11N7] | 18.2%
59 | CCCCCCCCCCCSc1nc(NCCCCCCCC)nc(NCC2CCN(C)CC2)n1 [Compound D10S11N8] | 46.1%
60 | CCCCCCCCCCCSc1nc(NCCCCCCCCC)nc(NCC2CCN(C)CC2)n1 [Compound D10S11N9] | 87.7%
61 | CCCCCCCCCCCNc1nc(NCC2CCN(C)CC2)nc(SCCCCCCCCCCC)n1 [Compound D10S11N11] | 27.7%
62 | CCCCCCCCCCCCNc1nc(NCC2CCN(C)CC2)nc(SCCCCCCCCCCC)n1 [Compound D10S11N12] | 24.7%
63 | CCCCCCCCCCCCCNc1nc(NCC2CCN(C)CC2)nc(SCCCCCCCCCCC)n1 [Compound D10S11N13] | 10.4%
64 | CCCCCCCCCCCCCCCNc1nc(NCC2CCN(C)CC2)nc(SCCCCCCCCCCC)n1 [Compound D10S11N15] | 18.6%
65 | CCCCCCCCCCCCCCCCNc1nc(NCC2CCN(C)CC2)nc(SCCCCCCCCCCC)n1 [Compound D10S11N16] | 10.4%
66 | CCCCCCCCCCCCCCCCCCNc1nc(NCC2CCN(C)CC2)nc(SCCCCCCCCCCC)n1 [Compound D10S11N18] | 9.6%
67 | CCCCCCCCCCCCSc1nc(NCCCCCC)nc(NCC2CCN(C)CC2)n1 [Compound D10S12N6] | 0.2%
